Structures can show the parent of a compound that is named as a salt. Where two headings read alike, the source gives them in different places. Where only a bound is given, the exact number is not on record here.

In the test the target is MLK3 (Homo sapiens (Human), UniProt Q16584). Nature of the test: Radiometric Filter Plate MLK3 Assay. Type of test: biochemical. The conditions noted are these: read-out: MK3 IC50. How it is done: Radiometric Filter Plate MLK3 Assay
After a twenty minute incubation, the reactions were washed through filter plates and read on a scintillation counter. Results are shown in Table 4 below, in which +++ indicates ≦0.1 μM, ++ indicates >0.1 μM and ≦1 μM, and + indicates >1 μM.

The mark [1] stands for this setting: 200 ng (130 nM) MLK3, 1 μM inactive MKK7b, 2 μM cold ATP (Km), 33P ATP, twenty minute incubation.

MLK3, sequence (Q16584 whole entry): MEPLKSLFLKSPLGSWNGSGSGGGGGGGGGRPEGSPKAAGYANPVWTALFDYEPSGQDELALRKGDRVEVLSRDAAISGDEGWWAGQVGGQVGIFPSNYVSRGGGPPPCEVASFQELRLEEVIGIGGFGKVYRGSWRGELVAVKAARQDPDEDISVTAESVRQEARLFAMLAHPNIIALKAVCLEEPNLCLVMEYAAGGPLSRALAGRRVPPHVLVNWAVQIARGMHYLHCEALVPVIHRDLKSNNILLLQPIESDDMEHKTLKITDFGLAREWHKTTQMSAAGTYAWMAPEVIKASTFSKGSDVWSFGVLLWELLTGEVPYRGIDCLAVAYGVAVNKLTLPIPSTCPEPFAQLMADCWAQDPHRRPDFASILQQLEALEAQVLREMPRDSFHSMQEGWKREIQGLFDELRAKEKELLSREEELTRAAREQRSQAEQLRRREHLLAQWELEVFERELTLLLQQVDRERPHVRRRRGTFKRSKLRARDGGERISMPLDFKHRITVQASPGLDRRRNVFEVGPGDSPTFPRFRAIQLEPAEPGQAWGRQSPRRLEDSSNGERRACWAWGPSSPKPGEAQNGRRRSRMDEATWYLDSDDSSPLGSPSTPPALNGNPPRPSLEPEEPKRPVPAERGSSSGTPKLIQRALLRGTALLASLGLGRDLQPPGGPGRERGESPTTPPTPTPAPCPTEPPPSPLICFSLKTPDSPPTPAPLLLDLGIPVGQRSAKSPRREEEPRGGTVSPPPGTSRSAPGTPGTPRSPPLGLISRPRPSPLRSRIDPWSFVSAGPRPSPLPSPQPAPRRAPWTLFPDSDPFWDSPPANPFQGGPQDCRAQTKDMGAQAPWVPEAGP

For orientation: IC50 means the midpoint of a concentration-inhibition curve. Turning to `CC(C)(C)OC(=O)N1CCN(C(=O)c2ccc(-c3cnc4[nH]cc(-c5ccc(C(N)=O)cc5)c4c3)cc2)CC1` [Example 148, 4-{4-[3-(4-carbamoyl-phenyl)-1H-pyrrolo[2,3-b]pyridin-5-yl]-benzoyl}-piperazine-1-carboxylic acid tert-butyl ester], the IC50 under setting [1] is less than 100 nM.

Regarding `COc1ccc(-c2cnc3[nH]c(=O)n(-c4ccc5[nH]ccc5c4)c3n2)cc1F` [Example 49, 6-(3-fluoro-4-methoxyphenyl)-1-(1H-indol-5-yl)-1H-imidazo[4,5-b]pyrazin-2(3H)-one], the half-inhibitory concentration (IC50) under setting [1] is greater than 1000 nM.

Consider `O=c1[nH]c2ncc(-c3ccncc3)nc2n1-c1ccc2[nH]ccc2c1` [Example 44, 1-(1H-indol-5-yl)-6-(pyridin-4-yl)-1H-imidazo[4,5-b]pyrazin-2(3H)-one], for which, under setting [1], the half-inhibitory concentration (IC50) was greater than 1000 nM.

Consider `CC(=O)N1CCN(Cc2ccc(-c3cnc4[nH]cc(-c5ccc(C(N)=O)cc5)c4c3)cc2)CC1` [Example 157, 4-{5-[4-(4-acetyl-piperazin-1-ylmethyl)-phenyl]-1H-pyrrolo[2,3-b]pyridin-3-yl}-benzamide], for which the IC50 under setting [1] is less than 100 nM.

With `O=c1[nH]c2ncc(-c3ccncc3)nc2n1CC1CC1` [Example 82, 1-(cyclopropylmethyl)-6-(pyridin-4-yl)-1H-imidazo[4,5-b]pyrazin-2(3H)-one], the IC50 under setting [1] is greater than 1000 nM.

For `COc1cc(-c2cnc3c(c2)C(Cc2ccccc2)C(=O)N3)cc(OC)c1OC` (centres unmarked) [Example 137, 3-benzyl-5-(3,4,5-trimethoxy-phenyl)-1,3-dihydro-pyrrolo[2,3-b]pyridin-2-one], the IC50 under setting [1] is greater than 1000 nM.

In the case of `COc1cc(-c2cnc3[nH]c(=S)n(CC4CC4)c3n2)cc(OC)c1OC` [Example 127, 1-(cyclopropylmethyl)-6-(3,4,5-trimethoxyphenyl)-1H-imidazo[4,5-b]pyrazine-2(3H)-thione], the IC50 under setting [1] was greater than 1000 nM.

As to `O=c1[nH]c2ncc(-c3cccc(O)c3)nc2n1-c1ccc2[nH]ccc2c1` [Example 54, 6-(3-hydroxyphenyl)-1-(1H-indol-5-yl)-1H-imidazo[4,5-b]pyrazin-2(3H)-one], the IC50 was 100 to 1000 nM.

Consider `COc1cc(-c2cnc3c(c2)C(Cc2ccccc2)(Cc2ccccc2)C(=O)N3)cc(OC)c1OC` [Example 139, 3,3-dibenzyl-5-(3,4,5-trimethoxy-phenyl)-1,3-dihydro-pyrrolo[2,3-b]pyridin-2-one], for which the IC50 lay in the range of 100 to 1000 nM.

For `Nc1ccc(-c2cnc3[nH]cc(-c4ccc5[nH]ccc5c4)c3c2)cc1` [Example 8, 4-(3-(1H-indol-5-yl)-1H-pyrrolo[2,3-b]pyridin-5-yl)aniline], the IC50 under setting [1] is less than 100 nM.

As to `CN1CCN(Cc2ccc(-c3cnc4[nH]cc(-c5ccc(C(N)=O)cc5)c4c3)cc2)CC1=O` [Example 158, 4-{5-[4-(4-methyl-3-oxo-piperazin-1-ylmethyl)-phenyl]-1H-pyrrolo[2,3-b]pyridin-3-yl}-benzamide], the half-maximal inhibitory concentration (IC50) under setting [1] is less than 100 nM.

For the compound `COc1cc(-c2cnc3[nH]c(=O)n(-c4ccc5scnc5c4)c3n2)cc(OC)c1OC` [Example 96, 1-(benzo[d]thiazol-5-yl)-6-(3,4,5-trimethoxyphenyl)-1H-imidazo[4,5-b]pyrazin-2(3H)-one], the IC50 was in the range of 100 to 1000 nM.

Turning to `COc1cc(-c2nc3c(nc2Cl)[nH]c(=O)n3CC2CC2)cc(OC)c1OC` [Example 119, 5-chloro-1-(cyclopropylmethyl)-6-(3,4,5-trimethoxyphenyl)-1H-imidazo[4,5-b]pyrazin-2(3H)-one], under setting [1], the concentration for half-maximal inhibition (IC50) is greater than 1000 nM.

For `NC(=O)c1ccc(-c2c[nH]c3ncc(-c4ccc(C(=O)N5CCNCC5)cc4)cc23)cc1` [Example 149, 4-{5-[4-(piperazine-1-carbonyl)-phenyl]-1H-pyrrolo[2,3-b]pyridin-3-yl}-benzamide, hydrochloride salt], the IC50 under setting [1] is less than 100 nM.

Take `COc1cc(-c2cnc3[nH]c(=O)n(C4CCCC4)c3n2)ccc1OCCN1CCOCC1` [Example 108, 1-cyclopentyl-6-(3-methoxy-4-(2-morpholinoethoxy)phenyl)-1H-imidazo[4,5-b]pyrazin-2(3H)-one]: the IC50 was 100 to 1000 nM.

With `CNc1ccc(-c2cnc3[nH]cc(-c4ccc5[nH]ccc5c4)c3c2)cn1` [Example 30, 5-(3-(1H-indol-5-yl)-1H-pyrrolo[2,3-b]pyridin-5-yl)-N-methylpyridin-2-amine], the half-maximal inhibitory concentration (IC50) was less than 100 nM.

With `COc1ccc(-c2cnc3[nH]c(=O)n(-c4ccc5[nH]cnc5c4)c3n2)cc1OC` [Example 103, 1-(1H-benzo[d]imidazol-5-yl)-6-(3,4-dimethoxyphenyl)-1H-imidazo[4,5-b]pyrazin-2(3H)-one], the IC50 lay in the range of 100 to 1000 nM.

As to `COc1cc(-c2cnc3[nH]c(=O)n(-c4ccc5[nH]ccc5c4)c3n2)ccc1OCCN1CCOCC1` [Example 57, 1-(1H-indol-5-yl)-6-(3-methoxy-4-(2-morpholinoethoxy)phenyl)-1H-imidazo[4,5-b]pyrazin-2(3H)-one], the IC50 under setting [1] is less than 100 nM.

As to `COc1cc(-c2cnc3[nH]cc(-c4ccc(CNC(C)=O)cc4)c3c2)cc(OC)c1OC` [Example 159, N-{4-[5-(3,4,5-Trimethoxy-phenyl)-1H-pyrrolo[2,3-b]pyridin-3-yl]-benzyl}-acetamide], the 50% inhibitory concentration (IC50) under setting [1] is less than 100 nM.

On to `COc1cc(-c2cnc3c(c2)C(Cc2cccnc2)C(=O)N3)cc(OC)c1OC` (centres unmarked) [Example 135, 3-pyridin-3-ylmethyl-5-(3,4,5-trimethoxy-phenyl)-1,3-dihydro-pyrrolo[2,3-b]pyridin-2-one], for which the IC50 under setting [1] was greater than 1000 nM.

Consider `CN1CCN(c2cc(-c3cnc4[nH]cc(-c5ccc6[nH]ccc6c5)c4c3)ccn2)CC1` [Example 7, 3-(1H-indol-5-yl)-5-(2-(4-methylpiperazin-1-yl)pyridin-4-yl)-1H-pyrrolo[2,3-b]pyridine], for which the IC50 under setting [1] was less than 100 nM.

With `CC(=O)N1CCN(C(=O)c2cccc(-c3cnc4[nH]cc(-c5ccc(C(N)=O)cc5)c4c3)c2)CC1` [Example 153, 4-{5-[3-(4-acetyl-piperazine-1-carbonyl)-phenyl]-1H-pyrrolo[2,3-b]pyridin-3-yl}-benzamide], the IC50 was in the range of 100 to 1000 nM.

As to `COc1cc(-c2cnc3[nH]cc(-c4ccc(N(C)C)nc4)c3c2)cc(OC)c1OC` [Example 19, N,N-dimethyl-5-(5-(3,4,5-trimethoxyphenyl)-1H-pyrrolo[2,3-b]pyridin-3-yl)pyridin-2-amine], under setting [1], the IC50 was less than 100 nM.

`Cc1cc(C)cc(-c2cnc3[nH]c(=O)n(-c4ccc5cn[nH]c5c4)c3n2)c1` [Example 95, 6-(3,5-dimethylphenyl)-1-(1H-indazol-6-yl)-1H-imidazo[4,5-b]pyrazin-2(3H)-one]: under setting [1], the IC50 was greater than 1000 nM.

On to `COc1ccc(-c2cnc3[nH]c(=O)n(-c4ccc5[nH]ccc5c4)c3n2)cc1N` [Example 50, 6-(3-amino-4-methoxyphenyl)-1-(1H-indol-5-yl)-1H-imidazo[4,5-b]pyrazin-2(3H)-one], for which the IC50 lay in the range of 100 to 1000 nM.

Take `CN1CCN(Cc2ccc(-c3c[nH]c4ncc(-c5ccc6[nH]ccc6c5)cc34)cc2)CC1` [Example 163, 5-(1H-indol-5-yl)-3-[4-(4-methyl-piperazin-1-ylmethyl)-phenyl]-1H-pyrrolo[2,3-b]pyridine]: the IC50 under setting [1] was greater than 1000 nM.

Take `Nc1ccc(-c2c[nH]c3ncc(-c4ccc(N)nc4)cc23)cc1` [Example 23, 5-(3-(4-aminophenyl)-1H-pyrrolo[2,3-b]pyridin-5-yl)pyridin-2-amine]: the IC50 lay in the range of 100 to 1000 nM.

Take `O=c1[nH]c2ncc(-c3cc(Cl)cc(Cl)c3)nc2n1-c1ccc2[nH]ccc2c1` [Example 48, 6-(3,5-dichlorophenyl)-1-(1H-indol-5-yl)-1H-imidazo[4,5-b]pyrazin-2(3H)-one]: the IC50 under setting [1] is greater than 1000 nM.

As to `O=c1[nH]c2ncc(-c3ccc(N4CCOCC4)cc3)nc2n1-c1ccc2[nH]ccc2c1` [Example 52, 1-(1H-indol-5-yl)-6-(4-morpholinophenyl)-1H-imidazo[4,5-b]pyrazin-2(3H)-one], the concentration for half-maximal inhibition (IC50) lay within 100 to 1000 nM.

`COc1ccc(-c2cnc3[nH]c(=O)n(-c4cnc5[nH]ccc5c4)c3n2)cc1OC` [Example 111, 6-(3,4-dimethoxyphenyl)-1-(1H-pyrrolo[2,3-b]pyridin-5-yl)-1H-imidazo[4,5-b]pyrazin-2(3H)-one]: the IC50 was in the range of 100 to 1000 nM.

Take `Cn1ccc2cc(-n3c(=O)[nH]c4ncc(-c5ccc(O)cc5)nc43)ccc21` [Example 42, 6-(4-hydroxyphenyl)-1-(1-methyl-1H-indol-5-yl)-1H-imidazo[4,5-b]pyrazin-2(3H)-one]: the IC50 under setting [1] was greater than 1000 nM.

`O=c1[nH]c2ncc(-c3ccncc3)nc2n1-c1ccc2cn[nH]c2c1` [Example 93, 1-(1H-indazol-6-yl)-6-(pyridin-4-yl)-1H-imidazo[4,5-b]pyrazin-2(3H)-one]: the IC50 was 100 to 1000 nM.

Regarding `COc1cc(-c2cnc3[nH]c(=O)n(C4CCCC4)c3n2)cc(OC)c1OC` [Example 74, 1-cyclopentyl-6-(3,4,5-trimethoxyphenyl)-1H-imidazo[4,5-b]pyrazin-2(3H)-one], the IC50 under setting [1] was less than 100 nM.

On to `COc1ccc(-c2cnc3[nH]cc(-c4ccc5[nH]ccc5c4)c3c2)cc1OC` [Example 2, 5-(3,4-dimethoxyphenyl)-3-(1H-indol-5-yl)-1H-pyrrolo[2,3-b]pyridine], for which the IC50 was 100 to 1000 nM.

As to `COc1ccc(-c2cnc3[nH]c(=O)n(-c4ccc5[nH]ccc5c4)c3n2)cc1OC` [Example 47, 6-(3,4-dimethoxyphenyl)-1-(1H-indol-5-yl)-1H-imidazo[4,5-b]pyrazin-2(3H)-one], the IC50 lay within 100 to 1000 nM.

As to `COc1ccc(-c2cnc3[nH]c(=O)n(-c4ccccc4)c3n2)cc1OC` [Example 106, 6-(3,4-dimethoxyphenyl)-1-phenyl-1H-imidazo[4,5-b]pyrazin-2(3H)-one], the half-maximal inhibitory concentration (IC50) was in the range of 100 to 1000 nM.

`O=c1[nH]c2ncc(-c3ccc(N4CCOCC4)cc3)nc2n1CC1CC1` [Example 86, 1-(cyclopropylmethyl)-6-(4-morpholinophenyl)-1H-imidazo[4,5-b]pyrazin-2(3H)-one]: the half-maximal inhibitory concentration (IC50) under setting [1] was greater than 1000 nM.

On to `COc1cc(OC)c(-c2cnc3[nH]c(=O)n(C4CCCC4)c3n2)c(OC)c1` [Example 94, 1-cyclopentyl-6-(2,4,6-trimethoxyphenyl)-1H-imidazo[4,5-b]pyrazin-2(3H)-one], for which the IC50 under setting [1] was greater than 1000 nM.

These data come from patent publication US9814704B2, “Substituted pyrrolo[2,3-b]pyridines as MLK inhibitors” (The University of Rochester, priority 2008, dated 2017).
